Assay results as given in patent publication US12626779B2, “Determining a targeted therapy using virtual inference of protein activity by regulon enrichment analysis of an individual subject tissue sample” (The Trustees of Columbia University in the City of New York, priority 2015, dated 2026).
“And” between values parts separate entries of the source, which are not always exact repeats. Equal values may be shown once. Read-outs that look alike come from different tables or passages of the source.

Tested on: lung adenocarcinoma cell lines
Excerpt: FIG. 7A illustrates the probability density for the nonmutated (salmon) and mutated (green) samples based on MPS for six actionable mutations (complete list in FIGS. 21A-21F). Right plots show MPS (v axis) for all samples rank-sorted by MPS; green vertical lines indicate the mutated samples. MPS-defined WT and mutant phenotypes (likelihood ratio >3) are highlighted in salmon and green. […] Scatter plots show drug sensitivity, quantified by the area under the titration curves (AUC), for EGFR-targeting drugs as a function of MPS (expressed as likelihood ratio). Cell lines resembling an EGFR mutated and WT phenotypes are highlighted in green (likelihood ratio >3) and salmon boxes, respectively. Green dots indicate cell lines harboring nonsilent mutations. Solid and doted horizontal lines indicate the mean and 2.33 standard deviation over the mean of the chemoresistant cell lines, respectively. […] Violin plots show the probability density for drug sensitivity (AUC) of the cell lines showing an EGFR WT (green) or mutant (brown) phenotype according to MPS; horizontal lines indicate distribution means, which were contrasted by Student t-test (P values in insets).

[1] = EGFR-mutated cell lines with MPS>0.5
[2] = cell lines with low EGFR MPS (<−0.5) that yet harbored EGFR mutations

| Compound | cell lines observed to be sensitive to the drug (sensitive/total) [1] | cell lines observed to be sensitive to the drug (sensitive/total) [2] | fraction of cell lines responding to EGFR inhibitors (EGFR WT cell lines with MPS<−0.5) [%] | fraction of cell lines responding to EGFR inhibitors (EGFR WT cell lines with MPS>0.5) [%] | fraction of cell lines responding to EGFR inhibitors |
| --- | --- | --- | --- | --- | --- |
| C#Cc1cccc(Nc2ncnc3cc(OCCOC)c(OCCOC)cc23)c1 [erlotinib] | 5/6 | 1/2 |  |  |  |
| CN1CCN(CCOc2cc(OC3CCOCC3)c3c(Nc4c(Cl)ccc5c4OCO5)ncnc3c2)CC1 [AZD0530, saracatinib] | 5/6 | 0/2 | 33 | 50 |  |
| CS(=O)(=O)CCNCc1ccc(-c2ccc3ncnc(Nc4ccc(OCc5cccc(F)c5)c(Cl)c4)c3c2)o1 [lapatinib] | 4/6 | 1/2 |  |  | 36% and 27% |
